In ChEMBL document CHEMBL1201862, “PubChem BioAssay data set” (2004) one finds IC50, EC50 and AC50 data, which are given here for 16 compounds.

Assay [1] addresses Beta-galactosidase (Escherichia coli, UniProt Q8VNN2). The assay is described as follows: Dose response counterscreen for EBI2 assay utilizing the enzyme, b-galactosidase. Format: functional. In general terms: A counterscreen serves to expose hits that act by an unwanted route or on another target.
Assay [2] is described as follows: HIV-1 Vif–A3G interaction blockers – biochemical, TR-FRET, GST-Vif 1-94, biotin-A3G peptide, dose response retest, primary screen (AID 1117319).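 Further: TR-FRET signal of purified GST-Vif binding a biotinylated A3G peptide; inhibitors lower the FRET signal by blocking Vif and A3G binding.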 It is filed as functional.
For assay [3], the system named is Streptococcus sp. 'group A'. Put plainly: Streptococcus pyogenes SK(-)GAS viability under kanamycin – luminescence, BacTiterGlo, confirmation, counter-screen for streptokinase expression inhibitor project, dose response (AID 1900). Format: functional, organism-based.
Assay [4] addresses T1, Streptokinase A (Streptococcus pyogenes serotype M1, UniProt P10520).
T1 sequence (P10520 whole entry): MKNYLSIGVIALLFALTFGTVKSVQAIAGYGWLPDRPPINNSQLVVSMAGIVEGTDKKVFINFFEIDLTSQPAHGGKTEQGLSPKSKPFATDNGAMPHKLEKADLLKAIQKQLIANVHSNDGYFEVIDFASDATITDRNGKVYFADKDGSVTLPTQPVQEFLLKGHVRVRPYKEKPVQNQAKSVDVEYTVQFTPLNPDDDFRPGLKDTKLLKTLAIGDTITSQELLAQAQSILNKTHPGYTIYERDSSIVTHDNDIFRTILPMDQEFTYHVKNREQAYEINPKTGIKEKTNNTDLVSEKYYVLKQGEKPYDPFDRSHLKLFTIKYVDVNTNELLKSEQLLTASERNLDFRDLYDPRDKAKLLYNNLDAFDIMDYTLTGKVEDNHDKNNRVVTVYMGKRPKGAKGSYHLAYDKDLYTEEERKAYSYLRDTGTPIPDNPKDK
The assay is described as follows: viability-normalized secreted streptokinase activity reduction – plasminogen activation absorbance, OD405, dose response (AID 1914).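 Further: secreted streptokinase activity via plasminogen activation per viability signal from cell pellet.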 Format: functional, Streptococcus pyogenes M1 GAS.

For assay [5], the target named is T2, Estrogen receptor beta (Homo sapiens, UniProt Q92731).
Assay [6] concerns the target T2, Estrogen receptor beta. The assay is described as follows: blockers of SRC-3 recruitment to ERβ – biochemical, ELISA, streptavidin-HRP readout, orthogonal assay, confirmation (AID 1060). (ELISA stands for enzyme-linked immunosorbent assay.)
Assay [7] concerns Streptococcus. Put plainly: GAS UMAA2166 growth inhibition – luminescence, BacTiterGlo, counter-screen for streptokinase expression inhibitor project, dose response (AID 1915).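 Further: potency for reduction of bacterial viability or growth.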 Format: functional, organism-based.
Assay [8] concerns the target T3, Long-chain-fatty-acid--AMP ligase FadD28 (Mycobacterium tuberculosis, UniProt P9WQ59).
T3 sequence (P9WQ59 whole entry): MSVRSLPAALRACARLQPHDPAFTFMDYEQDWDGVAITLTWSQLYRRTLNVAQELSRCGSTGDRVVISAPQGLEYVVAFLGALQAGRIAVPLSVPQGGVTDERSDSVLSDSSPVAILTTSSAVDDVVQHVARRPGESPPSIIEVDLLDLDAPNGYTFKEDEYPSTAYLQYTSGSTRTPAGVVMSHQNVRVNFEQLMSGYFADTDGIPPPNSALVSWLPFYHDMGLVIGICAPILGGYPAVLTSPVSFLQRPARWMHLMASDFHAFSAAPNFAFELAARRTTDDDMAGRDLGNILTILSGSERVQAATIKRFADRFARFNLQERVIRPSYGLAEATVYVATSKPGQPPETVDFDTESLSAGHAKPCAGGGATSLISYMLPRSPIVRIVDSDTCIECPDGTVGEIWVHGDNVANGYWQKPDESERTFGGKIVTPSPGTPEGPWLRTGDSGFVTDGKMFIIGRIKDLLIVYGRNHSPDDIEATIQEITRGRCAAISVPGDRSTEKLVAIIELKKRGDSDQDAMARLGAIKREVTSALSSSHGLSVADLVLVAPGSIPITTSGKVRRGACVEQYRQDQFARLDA
The assay is described as follows: Fluorescence polarization aasay to screen for inhibitors that compete for the binding of FadD28 to a bisubstrate Measured in Biochemical System Using Plate Reader - 2147-01_Inhibitor_Dose_CherryPick_Activity. It is filed as functional, Mycobacterium tuberculosis H37Rv.

For assay [9], the target named is Prothrombin (Homo sapiens, UniProt P00734). The assay is described as follows: Thrombin 1536 HTS Dose Response Confirmation. [Related pubchem assays: 1046 (Thrombin 1536 HTS; hits were confirmed in this assay)]. It is filed as functional.
In assay [10] the target is Mitogen-activated protein kinase 10 (Homo sapiens, UniProt P53779). The assay is described as follows: Dose response biochemical screening assay for inhibitors of c-Jun N-Terminal Kinase 3 (JNK3). [Related pubchem assays: 746 ].
The target in assay [11] is T4, Corticotropin-releasing factor receptor 2/Corticotropin-releasing factor-binding protein (Homo sapiens, UniProt P24387+Q13324).
T4 sequence (Q13324 whole entry): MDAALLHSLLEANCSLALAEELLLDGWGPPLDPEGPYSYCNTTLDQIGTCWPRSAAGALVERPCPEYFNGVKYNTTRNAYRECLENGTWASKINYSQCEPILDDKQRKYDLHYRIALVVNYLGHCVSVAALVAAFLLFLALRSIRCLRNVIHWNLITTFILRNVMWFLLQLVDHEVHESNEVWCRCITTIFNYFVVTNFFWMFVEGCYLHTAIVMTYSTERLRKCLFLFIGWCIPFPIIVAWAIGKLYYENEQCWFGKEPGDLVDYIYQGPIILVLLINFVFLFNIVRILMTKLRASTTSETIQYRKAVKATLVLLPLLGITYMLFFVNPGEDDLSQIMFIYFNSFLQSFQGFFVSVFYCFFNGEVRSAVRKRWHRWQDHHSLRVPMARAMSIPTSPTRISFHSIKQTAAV
T4 sequence (P24387 whole entry): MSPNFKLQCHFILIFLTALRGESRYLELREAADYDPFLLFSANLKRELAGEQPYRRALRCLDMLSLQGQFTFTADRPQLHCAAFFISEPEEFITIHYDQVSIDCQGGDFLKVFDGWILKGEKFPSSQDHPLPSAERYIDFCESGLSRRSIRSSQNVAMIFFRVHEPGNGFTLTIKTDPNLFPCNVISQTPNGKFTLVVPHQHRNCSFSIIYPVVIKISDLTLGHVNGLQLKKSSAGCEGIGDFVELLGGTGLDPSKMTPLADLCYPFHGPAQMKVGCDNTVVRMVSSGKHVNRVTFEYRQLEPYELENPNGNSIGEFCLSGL
The assay is described as follows: activators of CRF receptor 2 with binding protein – uHTS hits, confirmation (AID 602473). Format: functional. To be noted: read-out: EC50_Mean.

Assay [12] concerns the target Endoplasmic reticulum aminopeptidase 1 (Homo sapiens, UniProt Q9NZ08). The assay is described as follows: inhibition of human ERAP1 enzyme activity – biochemical, cherry-pick, set 2, plate reader, dose response (AID 743314).
In assay [13] the target is Nonstructural protein 1 (Influenza A virus, UniProt Q194T2). Format: functional, Influenza A virus (A/California/07/2009(H1N1)).
In assay [14] the target is T5, Histone-lysine N-methyltransferase NSD2 (Homo sapiens, UniProt O96028).
T5 sequence (O96028 whole entry): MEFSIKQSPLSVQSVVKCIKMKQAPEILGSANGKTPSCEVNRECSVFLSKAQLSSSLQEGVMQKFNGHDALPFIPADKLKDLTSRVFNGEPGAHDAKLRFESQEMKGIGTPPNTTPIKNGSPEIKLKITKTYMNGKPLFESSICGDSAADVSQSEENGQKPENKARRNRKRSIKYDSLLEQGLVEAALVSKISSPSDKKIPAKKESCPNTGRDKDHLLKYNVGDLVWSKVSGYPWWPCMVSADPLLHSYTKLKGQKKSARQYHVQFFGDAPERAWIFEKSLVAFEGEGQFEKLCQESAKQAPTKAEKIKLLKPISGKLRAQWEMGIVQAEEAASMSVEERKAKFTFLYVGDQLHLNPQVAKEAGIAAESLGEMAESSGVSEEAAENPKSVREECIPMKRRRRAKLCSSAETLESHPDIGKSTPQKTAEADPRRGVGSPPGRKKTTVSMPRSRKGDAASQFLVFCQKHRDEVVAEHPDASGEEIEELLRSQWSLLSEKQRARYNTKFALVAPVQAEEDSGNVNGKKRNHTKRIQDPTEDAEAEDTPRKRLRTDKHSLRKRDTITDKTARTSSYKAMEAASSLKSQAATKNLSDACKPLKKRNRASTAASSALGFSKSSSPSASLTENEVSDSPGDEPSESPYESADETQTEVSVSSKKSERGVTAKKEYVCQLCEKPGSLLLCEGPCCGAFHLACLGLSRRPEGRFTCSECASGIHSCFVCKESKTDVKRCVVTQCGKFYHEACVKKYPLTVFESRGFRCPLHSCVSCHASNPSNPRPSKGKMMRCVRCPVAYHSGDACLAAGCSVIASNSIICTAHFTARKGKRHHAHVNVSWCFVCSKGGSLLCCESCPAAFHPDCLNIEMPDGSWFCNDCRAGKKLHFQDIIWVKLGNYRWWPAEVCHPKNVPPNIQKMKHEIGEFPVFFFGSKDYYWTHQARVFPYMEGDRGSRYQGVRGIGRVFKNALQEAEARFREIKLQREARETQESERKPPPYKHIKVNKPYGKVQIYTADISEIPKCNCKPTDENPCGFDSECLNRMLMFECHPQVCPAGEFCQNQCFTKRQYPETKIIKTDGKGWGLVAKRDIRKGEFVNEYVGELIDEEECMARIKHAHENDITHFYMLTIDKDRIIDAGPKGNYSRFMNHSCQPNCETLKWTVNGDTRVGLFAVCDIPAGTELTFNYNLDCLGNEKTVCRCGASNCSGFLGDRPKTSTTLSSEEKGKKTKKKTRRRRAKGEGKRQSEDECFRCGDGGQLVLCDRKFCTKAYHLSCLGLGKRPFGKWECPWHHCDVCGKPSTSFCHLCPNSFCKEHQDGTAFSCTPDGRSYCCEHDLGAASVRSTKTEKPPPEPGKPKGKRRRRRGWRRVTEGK
Format: biochemical.

The nature of assay [15]: general mammalian cell viability loss – inhibitor set, cherry-pick, set 2, cytotoxicity control for miR-122 modulator project, dose response (AID 720697). Format: functional, cell-based.

Activity calls are given as the source filed them.

Broadly, the IC50 is the concentration that gives 50% inhibition. The AC50 is the concentration giving half of the maximal activity seen.

Chain of Beta-galactosidase (Q8VNN2 whole entry): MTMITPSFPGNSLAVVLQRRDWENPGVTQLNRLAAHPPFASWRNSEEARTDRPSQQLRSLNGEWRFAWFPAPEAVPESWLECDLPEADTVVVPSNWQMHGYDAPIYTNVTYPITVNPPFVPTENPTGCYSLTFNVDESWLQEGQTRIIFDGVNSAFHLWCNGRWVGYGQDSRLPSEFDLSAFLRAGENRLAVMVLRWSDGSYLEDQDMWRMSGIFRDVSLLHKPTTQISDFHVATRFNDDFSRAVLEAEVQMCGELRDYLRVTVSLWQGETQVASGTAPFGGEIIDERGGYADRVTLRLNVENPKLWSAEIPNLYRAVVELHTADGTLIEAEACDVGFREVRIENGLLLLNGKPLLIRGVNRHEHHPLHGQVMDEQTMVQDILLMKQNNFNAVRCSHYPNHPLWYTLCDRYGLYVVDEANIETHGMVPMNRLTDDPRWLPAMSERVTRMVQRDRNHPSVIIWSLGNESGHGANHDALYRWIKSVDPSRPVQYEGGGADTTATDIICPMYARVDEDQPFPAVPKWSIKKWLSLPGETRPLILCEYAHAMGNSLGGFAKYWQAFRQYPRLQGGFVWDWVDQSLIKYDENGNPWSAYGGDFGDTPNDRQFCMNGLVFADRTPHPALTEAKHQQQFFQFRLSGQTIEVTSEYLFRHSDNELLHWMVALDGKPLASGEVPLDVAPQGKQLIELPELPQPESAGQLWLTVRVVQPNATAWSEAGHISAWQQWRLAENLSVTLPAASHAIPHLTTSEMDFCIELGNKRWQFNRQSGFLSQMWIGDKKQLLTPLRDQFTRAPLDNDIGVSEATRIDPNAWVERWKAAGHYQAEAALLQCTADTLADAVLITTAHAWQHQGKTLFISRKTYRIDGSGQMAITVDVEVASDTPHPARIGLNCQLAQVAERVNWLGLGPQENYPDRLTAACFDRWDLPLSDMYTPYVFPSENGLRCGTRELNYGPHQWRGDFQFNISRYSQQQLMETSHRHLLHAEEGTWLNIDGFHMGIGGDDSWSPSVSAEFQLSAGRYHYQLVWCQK
Chain of Endoplasmic reticulum aminopeptidase 1 (Q9NZ08 whole entry): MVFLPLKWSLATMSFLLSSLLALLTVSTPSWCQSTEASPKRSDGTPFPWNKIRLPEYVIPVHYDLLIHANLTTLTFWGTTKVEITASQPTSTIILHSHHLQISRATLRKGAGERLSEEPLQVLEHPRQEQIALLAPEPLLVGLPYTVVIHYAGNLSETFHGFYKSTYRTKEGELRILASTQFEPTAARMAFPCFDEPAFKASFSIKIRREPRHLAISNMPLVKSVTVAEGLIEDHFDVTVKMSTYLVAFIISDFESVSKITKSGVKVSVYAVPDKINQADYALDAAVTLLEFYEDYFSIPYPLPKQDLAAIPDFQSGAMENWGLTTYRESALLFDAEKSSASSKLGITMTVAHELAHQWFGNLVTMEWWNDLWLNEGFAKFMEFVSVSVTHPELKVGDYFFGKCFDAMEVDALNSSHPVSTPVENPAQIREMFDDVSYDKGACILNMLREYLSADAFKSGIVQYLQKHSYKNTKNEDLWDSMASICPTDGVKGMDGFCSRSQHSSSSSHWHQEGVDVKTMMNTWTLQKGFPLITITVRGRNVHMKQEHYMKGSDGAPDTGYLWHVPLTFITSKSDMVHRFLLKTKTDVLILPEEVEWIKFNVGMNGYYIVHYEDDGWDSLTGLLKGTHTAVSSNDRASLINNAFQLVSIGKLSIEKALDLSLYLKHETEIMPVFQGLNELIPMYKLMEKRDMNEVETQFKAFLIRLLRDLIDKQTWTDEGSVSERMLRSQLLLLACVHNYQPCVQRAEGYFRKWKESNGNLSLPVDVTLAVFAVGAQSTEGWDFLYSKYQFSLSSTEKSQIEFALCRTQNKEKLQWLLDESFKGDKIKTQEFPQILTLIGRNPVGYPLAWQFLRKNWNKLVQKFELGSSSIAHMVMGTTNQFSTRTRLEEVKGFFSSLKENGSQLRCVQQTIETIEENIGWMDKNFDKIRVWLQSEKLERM
T2 sequence (Q92731 whole entry): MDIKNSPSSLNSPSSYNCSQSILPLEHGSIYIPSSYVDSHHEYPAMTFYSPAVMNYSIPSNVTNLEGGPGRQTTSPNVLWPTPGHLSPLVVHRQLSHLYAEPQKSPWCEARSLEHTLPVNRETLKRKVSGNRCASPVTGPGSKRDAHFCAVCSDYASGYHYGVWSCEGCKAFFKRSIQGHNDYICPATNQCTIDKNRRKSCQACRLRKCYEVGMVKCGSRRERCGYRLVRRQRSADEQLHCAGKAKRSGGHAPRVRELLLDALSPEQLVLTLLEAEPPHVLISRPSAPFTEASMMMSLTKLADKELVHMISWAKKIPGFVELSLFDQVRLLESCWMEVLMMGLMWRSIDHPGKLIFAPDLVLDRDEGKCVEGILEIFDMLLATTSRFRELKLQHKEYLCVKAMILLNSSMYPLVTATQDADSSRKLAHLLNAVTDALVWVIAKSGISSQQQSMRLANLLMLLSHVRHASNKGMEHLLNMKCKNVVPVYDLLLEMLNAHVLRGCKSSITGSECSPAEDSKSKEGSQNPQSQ
Chain of Mitogen-activated protein kinase 10 (P53779 whole entry): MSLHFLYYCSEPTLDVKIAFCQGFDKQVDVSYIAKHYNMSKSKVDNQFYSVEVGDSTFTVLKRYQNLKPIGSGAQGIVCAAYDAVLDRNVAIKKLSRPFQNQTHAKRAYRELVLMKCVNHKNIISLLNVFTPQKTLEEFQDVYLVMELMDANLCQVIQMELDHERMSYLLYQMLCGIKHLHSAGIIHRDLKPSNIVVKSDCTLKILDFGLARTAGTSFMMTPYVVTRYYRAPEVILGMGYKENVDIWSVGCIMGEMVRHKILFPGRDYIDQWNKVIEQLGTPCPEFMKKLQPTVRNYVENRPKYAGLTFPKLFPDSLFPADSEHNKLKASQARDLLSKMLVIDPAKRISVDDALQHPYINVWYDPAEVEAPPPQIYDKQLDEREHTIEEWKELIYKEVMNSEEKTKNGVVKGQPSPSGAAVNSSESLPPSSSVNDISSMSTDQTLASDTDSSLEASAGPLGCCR
Chain of Nonstructural protein 1 (Q194T2 whole entry): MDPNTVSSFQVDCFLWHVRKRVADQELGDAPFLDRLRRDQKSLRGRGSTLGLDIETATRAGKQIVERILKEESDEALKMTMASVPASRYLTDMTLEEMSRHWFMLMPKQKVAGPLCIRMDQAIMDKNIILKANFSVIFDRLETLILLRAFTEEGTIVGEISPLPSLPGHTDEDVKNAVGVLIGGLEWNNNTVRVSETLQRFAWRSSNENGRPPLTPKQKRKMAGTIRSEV

With `Cc1cc(C)c2cc(C(=O)N3CCC(C(=O)c4ccc(F)cc4)CC3)[nH]c2c1`, the IC50 in assay [1] was > 80 µM (inactive).

Turning to `O=C(CN1C(=O)CSC1=O)Nc1ccccc1N1CCOCC1`, the IC50 in assay [2] was > 100 µM (active).

Consider `CCOC(=O)c1c(NS(=O)(=O)c2ccc(Br)cc2)sc2c1CCC2`, for which the EC50 in [3] was 2.1 µM (active); in assay [4], > 150 µM (not active); in [7], 4.07 µM (active). Further, the IC50 in [5] and in assay [6] was > 50 µM (not active) in each case. The AC50 in assay [8] is > 100 µM (inactive).

As to `O=C(c1ccc(N2CCCCC2)c([N+](=O)[O-])c1)N(c1ccccn1)c1ccccn1`, the IC50 in [9] is > 50 µM (not active).

In the case of `Cc1ccc2oc(=O)c3cnn(CC(=O)N4CCN(c5ccccn5)CC4)c3c2c1`, in assay [10], the IC50 is > 93.1 µM (not active).

`Cc1ccc(Cl)cc1N1CCN(C(=O)c2cc3c(O)nc4ccccc4c3n2C)CC1`: in [1], the IC50 was > 80 µM (inactive).

On to `O=c1oc2c(CN3CCN(CCO)CC3)c(O)ccc2cc1-c1ccccn1`, for which, in assay [11], the EC50 is 6.05 µM (active). Besides, in [12], the AC50 was 1.46 µM (active).

Consider `O=[N+]([O-])c1ccccc1/C=C\C=N\N1CCN(c2ccccc2)CC1`, for which the 50% inhibitory concentration (IC50) in assay [13] was 59.2 µM (active). Further, the AC50 in assay [14] was > 20 µM (inactive).

`C[C@@H]1CN([C@@H](C)CO)S(=O)(=O)c2ccc(C3=CCCCC3)cc2O[C@@H]1CN(C)C(=O)Nc1ccc2c(c1)OCO2`: the AC50 in assay [15] was 0.502 µM (active).

`O=C(NCc1nc2ncc(Br)cc2[nH]1)c1ccccc1`: in assay [10], the IC50 is on record as 38.3 µM (not active).

In the case of `Cc1ccnc(NC(=O)C2CCCN(S(=O)(=O)c3c[nH]cn3)C2)c1` (stereo not drawn), in [9], the IC50 is on record as > 50 µM (not active).

As for `O=C(Nc1ccccc1N1CCOCC1)c1ccc2[nH]cnc2c1`, the IC50 in [9] was 6.87 µM (active).

In the case of `COCC(=O)Nc1sc2c(c1C(=O)OC)C(C(=O)OC)CC2` (stereo not drawn), in [2], the IC50 was > 100 µM (active).

As to `FC(F)(F)c1ccc(Oc2ccc3cc(Br)ccc3c2)nc1`, in assay [1], the IC50 is > 80 µM (inactive).

On to `COc1cccc(CNC(=O)[C@H]2N[C@H]3c4ccc(/C=C/c5ccccc5)c(=O)n4C[C@H]3[C@@H]2CO)c1`, for which, in assay [12], the half-maximal activity concentration (AC50) is 16.2 µM (active).

As to `CCN1[C@H](C(=O)Nc2nccs2)[C@@H](CO)[C@@H]2Cn3c(ccc(/C=C/c4ccccc4)c3=O)[C@@H]21`, in assay [12], the AC50 is 19 µM (active).
